The results in this text go back to ChEMBL document CHEMBL5465560, “Selectivity Literature for EUbOPEN Chemogenomic Library” (2024).

Assay [1] deals with Serine/threonine-protein kinase MRCK beta (Homo sapiens) (UniProt Q9Y5S2). The conditions noted are these: at 10 µM.
For assay [2], the target named is T1, Discoidin domain-containing receptor 2 (Homo sapiens) (UniProt Q16832).
T1 sequence (whole entry): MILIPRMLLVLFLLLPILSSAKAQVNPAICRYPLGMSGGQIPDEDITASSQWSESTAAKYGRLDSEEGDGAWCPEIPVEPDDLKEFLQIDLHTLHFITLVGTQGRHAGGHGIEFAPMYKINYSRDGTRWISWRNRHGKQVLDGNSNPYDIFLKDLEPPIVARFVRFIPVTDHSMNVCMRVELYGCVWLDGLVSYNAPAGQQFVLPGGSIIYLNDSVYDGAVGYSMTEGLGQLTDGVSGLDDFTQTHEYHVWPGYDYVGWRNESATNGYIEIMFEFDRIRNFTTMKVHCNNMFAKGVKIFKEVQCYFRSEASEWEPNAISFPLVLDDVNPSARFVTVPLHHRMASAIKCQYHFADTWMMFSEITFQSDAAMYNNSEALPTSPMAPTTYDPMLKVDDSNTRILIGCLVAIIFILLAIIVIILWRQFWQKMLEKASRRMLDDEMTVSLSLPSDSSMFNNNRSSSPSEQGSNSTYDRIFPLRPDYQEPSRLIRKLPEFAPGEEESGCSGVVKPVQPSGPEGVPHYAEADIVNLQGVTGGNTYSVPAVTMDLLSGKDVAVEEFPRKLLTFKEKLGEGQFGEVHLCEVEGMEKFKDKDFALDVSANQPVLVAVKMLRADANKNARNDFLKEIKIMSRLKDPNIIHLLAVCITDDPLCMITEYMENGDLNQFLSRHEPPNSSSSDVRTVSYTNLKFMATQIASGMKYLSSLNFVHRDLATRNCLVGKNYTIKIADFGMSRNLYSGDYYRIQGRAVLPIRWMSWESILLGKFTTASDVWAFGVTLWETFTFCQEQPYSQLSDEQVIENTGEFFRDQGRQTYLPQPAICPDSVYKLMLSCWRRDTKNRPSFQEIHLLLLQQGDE
Briefly: Selectivity interaction (KinomeScan (DiscoverX)) EUB0000607a DDR2. Conditions: at 10 µM.

The target of assay [3] is Phosphatidylinositol 4-phosphate 3-kinase C2 domain-containing subunit beta (Homo sapiens) (UniProt O00750). Conditions: at 10 µM.
The target of assay [4] is Serine/threonine-protein kinase 38-like (Homo sapiens) (UniProt Q9Y2H1). The conditions noted are these: at 10 µM.
Assay [5] concerns the target Fibroblast growth factor receptor 1 (Homo sapiens, UniProt P11362). Description: Selectivity interaction (KinaseProfiler screening (Millipore)) EUB0000601a FGFR1. Conditions: at 3 µM.
For assay [6], the target named is Dual specificity protein kinase CLK1 (Homo sapiens, UniProt P49759). Description: Selectivity interaction (Kinase panel (Invitrogen)) EUB0000639a CLK1. The conditions noted are these: at 200 nM.
Assay [7] has as its target Dual specificity tyrosine-phosphorylation-regulated kinase 1A (Homo sapiens, UniProt Q13627). Description: Selectivity interaction (KinomeScan (DiscoverX)) EUB0000045b DYRK1A.
In assay [8] the target is Calcium/calmodulin-dependent protein kinase type II subunit gamma (Homo sapiens) (UniProt Q13555). Description: Selectivity interaction (Ambit KINOMEscan and KiNATiv profiling in Jurkat cells) EUB0000090b CAMK2G. It counts as cell-based. The conditions noted are these: at 1 µM.
For assay [9], the target named is T2, Serine/threonine-protein kinase TBK1 (Homo sapiens) (UniProt Q9UHD2).
T2 sequence (whole entry): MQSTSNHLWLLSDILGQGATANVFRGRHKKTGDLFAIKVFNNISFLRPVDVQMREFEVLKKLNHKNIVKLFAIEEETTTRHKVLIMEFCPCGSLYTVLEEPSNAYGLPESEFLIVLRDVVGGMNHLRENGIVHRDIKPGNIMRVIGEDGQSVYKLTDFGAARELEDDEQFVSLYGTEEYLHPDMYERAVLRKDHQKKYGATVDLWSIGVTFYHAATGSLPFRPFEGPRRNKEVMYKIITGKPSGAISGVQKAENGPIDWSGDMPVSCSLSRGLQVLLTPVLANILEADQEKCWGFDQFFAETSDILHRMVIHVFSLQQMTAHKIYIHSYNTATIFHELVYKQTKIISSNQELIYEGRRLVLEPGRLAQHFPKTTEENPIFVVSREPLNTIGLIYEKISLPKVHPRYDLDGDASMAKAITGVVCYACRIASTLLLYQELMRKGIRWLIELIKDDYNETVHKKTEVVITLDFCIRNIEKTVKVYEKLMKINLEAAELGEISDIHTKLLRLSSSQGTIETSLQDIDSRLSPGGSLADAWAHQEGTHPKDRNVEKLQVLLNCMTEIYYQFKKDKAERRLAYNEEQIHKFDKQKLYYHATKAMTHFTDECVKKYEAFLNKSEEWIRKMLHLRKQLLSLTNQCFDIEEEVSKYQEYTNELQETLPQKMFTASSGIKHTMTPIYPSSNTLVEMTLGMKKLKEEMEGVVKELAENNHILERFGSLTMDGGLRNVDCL
Briefly: Selectivity interaction (KinomeScan (DiscoverX)) EUB0000655a TBK1. Conditions: at 10 µM.

Assay [10] has as its target Insulin receptor-related protein (Homo sapiens) (UniProt P14616). Briefly: Selectivity interaction (KinomeScan (DiscoverX)) EUB0001079a INSRR. Conditions: at 1 µM.
Assay [11] addresses T3, Serine/threonine-protein kinase Sgk3 (Homo sapiens) (UniProt Q96BR1).
T3 sequence (whole entry): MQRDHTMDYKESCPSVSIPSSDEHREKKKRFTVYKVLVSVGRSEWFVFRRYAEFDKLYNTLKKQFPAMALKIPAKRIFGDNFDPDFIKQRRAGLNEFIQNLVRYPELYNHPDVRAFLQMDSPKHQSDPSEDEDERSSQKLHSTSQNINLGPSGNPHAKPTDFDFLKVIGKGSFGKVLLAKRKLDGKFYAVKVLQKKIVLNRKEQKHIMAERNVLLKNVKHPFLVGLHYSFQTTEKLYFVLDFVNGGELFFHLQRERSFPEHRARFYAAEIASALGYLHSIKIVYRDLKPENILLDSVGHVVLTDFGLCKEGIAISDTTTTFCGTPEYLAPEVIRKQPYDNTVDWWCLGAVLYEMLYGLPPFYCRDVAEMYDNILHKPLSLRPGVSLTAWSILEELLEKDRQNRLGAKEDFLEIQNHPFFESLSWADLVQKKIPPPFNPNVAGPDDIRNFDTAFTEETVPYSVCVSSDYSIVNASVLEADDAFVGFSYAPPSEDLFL
Description: Selectivity interaction (KinomeScan (DiscoverX)) EUB0000229b SGK3. Conditions: at 10 µM.

Chain of Insulin receptor-related protein (Homo sapiens) (P14616 27-742 limits assumed): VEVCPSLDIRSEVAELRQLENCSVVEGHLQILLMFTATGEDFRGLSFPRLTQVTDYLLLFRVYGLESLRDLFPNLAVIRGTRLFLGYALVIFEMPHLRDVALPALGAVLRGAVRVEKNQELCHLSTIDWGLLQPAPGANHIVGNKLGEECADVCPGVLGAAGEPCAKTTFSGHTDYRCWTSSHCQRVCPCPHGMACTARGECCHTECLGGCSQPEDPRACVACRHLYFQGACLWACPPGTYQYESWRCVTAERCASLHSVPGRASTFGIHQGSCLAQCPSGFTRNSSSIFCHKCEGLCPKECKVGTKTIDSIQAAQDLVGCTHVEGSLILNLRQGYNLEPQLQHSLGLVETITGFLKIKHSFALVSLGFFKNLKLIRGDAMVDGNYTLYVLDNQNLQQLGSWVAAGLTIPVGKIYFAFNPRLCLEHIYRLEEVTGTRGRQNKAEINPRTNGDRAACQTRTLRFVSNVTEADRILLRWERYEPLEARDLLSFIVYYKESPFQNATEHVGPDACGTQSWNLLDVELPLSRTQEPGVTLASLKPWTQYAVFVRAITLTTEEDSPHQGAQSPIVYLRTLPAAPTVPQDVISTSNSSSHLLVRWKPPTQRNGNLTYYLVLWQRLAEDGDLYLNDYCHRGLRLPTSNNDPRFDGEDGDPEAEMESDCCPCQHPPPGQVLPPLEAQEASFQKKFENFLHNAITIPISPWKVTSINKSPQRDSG
Chain of Insulin receptor-related protein (Homo sapiens) (P14616 747-1297 limits assumed): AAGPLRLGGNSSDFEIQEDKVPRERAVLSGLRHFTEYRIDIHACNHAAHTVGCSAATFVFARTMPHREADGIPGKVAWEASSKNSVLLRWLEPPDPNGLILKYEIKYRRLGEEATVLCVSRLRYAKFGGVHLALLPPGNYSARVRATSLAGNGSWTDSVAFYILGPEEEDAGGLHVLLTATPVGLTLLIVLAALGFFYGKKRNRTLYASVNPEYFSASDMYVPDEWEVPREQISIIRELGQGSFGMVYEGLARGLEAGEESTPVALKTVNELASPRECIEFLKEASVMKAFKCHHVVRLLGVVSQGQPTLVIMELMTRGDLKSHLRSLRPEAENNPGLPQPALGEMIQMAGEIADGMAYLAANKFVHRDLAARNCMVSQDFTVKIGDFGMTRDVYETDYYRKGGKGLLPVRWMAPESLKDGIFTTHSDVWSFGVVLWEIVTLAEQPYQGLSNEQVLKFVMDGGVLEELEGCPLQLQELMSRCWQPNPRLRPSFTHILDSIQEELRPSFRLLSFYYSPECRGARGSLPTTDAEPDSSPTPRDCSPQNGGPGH
Chain of Phosphatidylinositol 4-phosphate 3-kinase C2 domain-containing subunit beta (Homo sapiens) (O00750 whole entry, the tested form may be a part): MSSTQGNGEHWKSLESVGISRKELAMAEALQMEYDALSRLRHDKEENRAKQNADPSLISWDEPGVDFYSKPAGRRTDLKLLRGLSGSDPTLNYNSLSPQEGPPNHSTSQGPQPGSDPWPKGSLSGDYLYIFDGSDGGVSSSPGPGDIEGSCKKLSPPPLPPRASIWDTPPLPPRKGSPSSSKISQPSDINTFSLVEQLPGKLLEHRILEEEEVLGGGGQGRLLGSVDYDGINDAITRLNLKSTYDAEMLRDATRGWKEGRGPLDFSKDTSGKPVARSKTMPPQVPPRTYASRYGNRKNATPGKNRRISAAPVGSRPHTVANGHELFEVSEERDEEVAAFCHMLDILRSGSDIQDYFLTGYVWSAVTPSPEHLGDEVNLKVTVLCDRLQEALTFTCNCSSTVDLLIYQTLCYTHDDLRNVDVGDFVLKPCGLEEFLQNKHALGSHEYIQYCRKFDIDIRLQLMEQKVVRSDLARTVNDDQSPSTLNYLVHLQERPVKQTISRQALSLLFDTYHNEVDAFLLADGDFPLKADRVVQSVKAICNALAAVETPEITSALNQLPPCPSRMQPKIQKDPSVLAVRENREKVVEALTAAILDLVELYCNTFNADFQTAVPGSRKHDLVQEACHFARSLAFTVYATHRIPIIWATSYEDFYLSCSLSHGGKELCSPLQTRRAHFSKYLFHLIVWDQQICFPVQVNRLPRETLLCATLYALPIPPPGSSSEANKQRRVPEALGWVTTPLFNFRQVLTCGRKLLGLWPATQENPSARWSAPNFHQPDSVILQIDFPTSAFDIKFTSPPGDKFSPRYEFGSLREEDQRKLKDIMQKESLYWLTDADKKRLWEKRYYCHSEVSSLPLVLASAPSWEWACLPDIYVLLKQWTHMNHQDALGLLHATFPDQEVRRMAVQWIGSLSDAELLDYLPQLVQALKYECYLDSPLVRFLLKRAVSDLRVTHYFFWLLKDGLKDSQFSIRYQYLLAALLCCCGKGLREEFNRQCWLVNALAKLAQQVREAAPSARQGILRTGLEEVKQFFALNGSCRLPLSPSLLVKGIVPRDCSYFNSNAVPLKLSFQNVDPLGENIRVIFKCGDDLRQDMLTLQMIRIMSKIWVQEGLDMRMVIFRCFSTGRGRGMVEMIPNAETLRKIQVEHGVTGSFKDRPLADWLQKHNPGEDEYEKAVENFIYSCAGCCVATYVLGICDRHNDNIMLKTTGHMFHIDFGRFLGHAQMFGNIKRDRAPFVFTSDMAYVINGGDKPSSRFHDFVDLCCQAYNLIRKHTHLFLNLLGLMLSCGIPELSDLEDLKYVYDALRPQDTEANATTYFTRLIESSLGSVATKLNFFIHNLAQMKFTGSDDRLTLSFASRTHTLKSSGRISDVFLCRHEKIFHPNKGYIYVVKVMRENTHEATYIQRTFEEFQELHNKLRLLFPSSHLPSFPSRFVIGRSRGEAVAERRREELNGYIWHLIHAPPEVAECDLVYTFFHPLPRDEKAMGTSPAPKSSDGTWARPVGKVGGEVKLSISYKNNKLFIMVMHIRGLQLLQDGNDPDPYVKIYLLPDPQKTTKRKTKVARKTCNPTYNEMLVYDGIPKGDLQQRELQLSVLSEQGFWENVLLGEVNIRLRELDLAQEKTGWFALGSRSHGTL
Chain of Serine/threonine-protein kinase 38-like (Homo sapiens) (Q9Y2H1 2-464 limits assumed): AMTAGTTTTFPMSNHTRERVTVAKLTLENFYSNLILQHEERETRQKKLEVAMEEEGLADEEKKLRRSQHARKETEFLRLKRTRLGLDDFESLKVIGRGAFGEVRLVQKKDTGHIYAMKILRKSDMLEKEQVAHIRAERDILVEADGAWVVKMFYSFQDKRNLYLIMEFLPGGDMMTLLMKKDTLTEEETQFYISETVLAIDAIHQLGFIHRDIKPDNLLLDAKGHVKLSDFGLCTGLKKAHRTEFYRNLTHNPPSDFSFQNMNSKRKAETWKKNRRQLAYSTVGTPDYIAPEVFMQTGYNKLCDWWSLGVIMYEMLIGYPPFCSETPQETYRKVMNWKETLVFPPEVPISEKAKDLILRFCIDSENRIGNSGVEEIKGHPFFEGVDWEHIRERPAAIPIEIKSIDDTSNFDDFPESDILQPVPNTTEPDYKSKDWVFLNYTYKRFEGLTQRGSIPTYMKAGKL
Chain of Fibroblast growth factor receptor 1 (P11362 22-822 limits assumed): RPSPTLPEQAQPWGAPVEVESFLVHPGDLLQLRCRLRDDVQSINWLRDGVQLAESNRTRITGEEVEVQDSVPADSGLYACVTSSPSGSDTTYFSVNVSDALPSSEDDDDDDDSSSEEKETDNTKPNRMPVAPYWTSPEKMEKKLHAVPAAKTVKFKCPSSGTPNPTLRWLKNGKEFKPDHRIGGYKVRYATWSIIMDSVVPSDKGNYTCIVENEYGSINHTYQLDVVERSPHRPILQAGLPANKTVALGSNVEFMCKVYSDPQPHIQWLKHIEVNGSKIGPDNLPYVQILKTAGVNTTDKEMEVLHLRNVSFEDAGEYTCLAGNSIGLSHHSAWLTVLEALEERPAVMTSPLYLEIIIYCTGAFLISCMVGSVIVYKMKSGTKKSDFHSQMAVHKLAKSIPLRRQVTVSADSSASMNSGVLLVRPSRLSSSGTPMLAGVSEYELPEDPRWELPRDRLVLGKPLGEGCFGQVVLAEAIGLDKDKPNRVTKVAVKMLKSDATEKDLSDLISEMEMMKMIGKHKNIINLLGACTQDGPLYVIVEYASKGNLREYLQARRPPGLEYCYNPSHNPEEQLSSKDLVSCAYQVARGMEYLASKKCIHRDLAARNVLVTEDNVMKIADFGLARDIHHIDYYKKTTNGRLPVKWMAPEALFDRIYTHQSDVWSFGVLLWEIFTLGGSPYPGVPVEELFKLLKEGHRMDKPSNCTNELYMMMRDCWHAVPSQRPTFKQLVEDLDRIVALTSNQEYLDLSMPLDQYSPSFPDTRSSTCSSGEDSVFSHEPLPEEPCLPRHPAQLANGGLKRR
Chain of Calcium/calmodulin-dependent protein kinase type II subunit gamma (Homo sapiens) (Q13555 whole entry): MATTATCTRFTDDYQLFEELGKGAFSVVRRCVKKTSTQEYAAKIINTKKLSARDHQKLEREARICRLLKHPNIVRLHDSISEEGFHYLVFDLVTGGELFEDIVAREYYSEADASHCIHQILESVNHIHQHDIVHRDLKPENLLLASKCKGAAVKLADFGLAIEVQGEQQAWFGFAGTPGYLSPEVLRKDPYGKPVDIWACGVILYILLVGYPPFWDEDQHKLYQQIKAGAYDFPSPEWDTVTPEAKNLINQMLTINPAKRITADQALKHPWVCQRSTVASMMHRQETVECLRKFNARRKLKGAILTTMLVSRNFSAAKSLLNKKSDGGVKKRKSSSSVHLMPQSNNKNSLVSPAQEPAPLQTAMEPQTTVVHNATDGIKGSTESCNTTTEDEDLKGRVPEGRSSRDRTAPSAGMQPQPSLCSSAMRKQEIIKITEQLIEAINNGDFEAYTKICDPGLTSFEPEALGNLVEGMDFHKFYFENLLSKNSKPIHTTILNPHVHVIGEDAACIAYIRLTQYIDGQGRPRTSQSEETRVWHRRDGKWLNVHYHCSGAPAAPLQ

Molecule `CCN(CC)CCCCNc1ncc2cc(-c3cc(OC)cc(OC)c3)c(NC(=O)NC(C)(C)C)nc2n1` displayed a % of control in assay [1] of 100%.

Molecule `CNC(=O)Nc1ccc(-c2nc(N3CC4CCC(C3)O4)c3cnn(C4CCC5(CC4)OCCO5)c3n2)cc1` came in with a % of control in assay [2] of 100%.

`Cc1cc([C@@H](C)Nc2ccccc2C(=O)O)c2nc(N3CCOCC3)cc(=O)n2c1` [AZD-6482]: the % of control in [3] is 0.4%; in assay [4] it was 94%.

`CCc1cc(Nc2nccc(-c3c(-c4ccc(OC)c(C(=O)Nc5c(F)cccc5F)c4)nc4ccccn34)n2)c(OC)cc1N1CCC(N2CCN(S(C)(=O)=O)CC2)CC1` had a % of inhibition in assay [5] of 68%.

The molecule `CC[C@@H]1[C@H](F)C(=O)N[C@@H]1COc1nccc2cc(C(N)=O)c(OC)cc12` [ZIMLOVISERTIB] yielded a % of inhibition in [6] of 34.5%.

`C=CC(=O)Nc1cc(-n2c(=O)ccc3cnc4ccc(-c5ccc(NS(C)(=O)=O)cc5)cc4c32)ccc1C`: the results for the % of control in assay [7] (at 1 µM) and in assay [7] (at 10 µM) were 100% and 62%, respectively.

Regarding `CN(C)C/C=C/C(=O)Nc1ccc(C(=O)N2CCCC(Nc3ncc(Cl)c(-c4c[nH]c5ccccc45)n3)C2)cc1` (configuration not stated), the % of control in assay [8] is 93%.

`CN(C)CCOc1ccc(-c2nc(-c3ccncc3)c(-c3ccc4c(c3)CC/C4=N\O)[nH]2)cc1` registered a % of control in assay [9] of 84%.

Consider `Nc1cnc(N2CCc3cc(S(=O)(=O)Nc4c(F)cc(Cl)cc4F)cc(N4CCCC4=O)c32)nc1` [TP-020n], for which the % of control in assay [10] was found to be 100%.

For `COc1cc(N(C)c2ccnc3ccc(C(F)(F)F)cc23)cc(OC)c1OC`, in assay [11], the % binding stood at 79%.
